Assay [1] has as its system panel of 456 kinases. The experiment in a line: DiscoveRx KINOMEscan competition binding assay. More on the design: species or system human. The procedure: FIG. 7E: (top) The kinase selectivity profile for compound 14 was determined using the DiscoveRx KINOMEscan profiling service. Briefly, compound 14 was screened at a 1-μM dose for its ability to impair binding of a panel of 456 kinases to substrate in an in vitro binding assay. Scores for the primary screen hits are reported as a percent of the DMSO control (% Control). Lower scores reflect stronger inhibitory effects of compound 14 on the target kinase. Compound 14 was very selective, only inhibiting 8 kinases >95% and 19 kinases >90% when tested at 10 μM. (bottom) In vitro kinase assays were performed for selected kinases. These assays were performed in the presence of compound 14 in a dose-response manner to identify the IC50 value for compound 14 for each of these individual kinases. […] Of the remaining kinases, those kinases which IC50 value was less than what was identified from ULK2 are highlighted in brown.
Kinase inhibitor specificity profiling assays were first carried out using DiscoveRx KINOMEscan competition binding assay against a panel of 456 kinases (www dot discoverx dot corn) using 1 μM compound 14.
We next examined the specificity of compound 14 using the DiscoveRx KINOMEscan panel of 456 purified human kinases and subsequent competition binding assay.

Assay [2] deals with murine Kras p53 lung carcinoma cells. The experiment in a line: AnnexinV apoptosis in Kras p53 lung carcinoma cells. Type of assay: cell-based. As to conditions: selectively in the nutrient-starved state. The procedure:
For flow cytometry analysis, cells were collected at the appropriate time point, washed once in PBS, trypsinized and pelleted. For Annexin V staining, cells were washed in 1× Annexin V buffer and treated as described by the Annexin V staining protocol (BD Pharmingen, San Diego, Calif.). Briefly, cells were resuspended in Annexin V buffer to a concentration of one million per mL, 100,000 cells were then stained with 5 μL of phycoerythrin (PE)-conjugated Annexin V antibody (BD Pharmingen, San Diego, Calif.) and 5 μL of 7-amino-actinomycin D (7AAD) and then incubated at room temperature for 15 minutes. 400 μL of Annexin V buffer was then added to each sample with gentle mixing. Stained cells were analyzed using a FACScan flow cytometer (Becton Dickinson, San Jose, Calif.). Flow cytometry data was analyzed using FlowJo 8.6 software (Tree Star Inc., Ashland, Oreg.).
There has been great interest in the role of autophagy in the survival of tumor cells, particular tumor cells faced with metabolic stress from chemotherapies or targeted therapeutics. We next examined whether compound 14 would promote apoptosis in tumor cells similar to the MEFs, selectively under conditions in which autophagy is actively engaged. […]

For assay [3], the system named is A549 lung cancer cells. The experiment in a line: Cyto-ID autophagy detection in A549 cells. Type of assay: cell-based. The conditions noted are these: A549, 5 μM for 2 hr then 4 μM AZD8055 for 24 hr. The method, then:
FIG. 9E is an immunoflourescence imaging of A549 cells treated in the presence or absence of 5 μM compound 14 for 2 hr followed by 4 μM of the mTOR catalytic inhibitor AZD8055 for 24 hr. Autophagic vacuoles were detected using the Cyto-ID autophagy detection kit and are visualized in green, while cell nuclei were counterstained by DAPI and are visualized in blue.
To test the ability of compound 14 to block autophagy and cell survival, initial studies were performed in A549 lung cancer cells, which are highly sensitive to mTOR inhibition. […] Next, we genetically assessed the requirement for ULK1 versus other kinases inhibited by compound 14 to induce autophagy after pharmacological mTOR inhibition. A robust high-throughput microscopy method for quantifying GFP-LC3 puncta was established using a PC3 prostate-cancer cell line stably expressing a GFP-LC3 construct. Using this assay, we performed a focused RNAi analysis of the top 20 kinases identified in the DiscovRx screen as best binding to compound 14. […] Strikingly, of the 18 kinases tested, only one kinase siRNA, ULK1, nearly fully abolished the LC3 puncta induced by the mTOR inhibitors (FIG. 9D).

Assay [4] has as its system endogenous ULK1. Description: endogenous ULK1 activity in MEFs: mobility shift of Beclin1 and Atg13. The conditions noted are these: WT MEFs, 10 μM co-treatment, 1 hr. Type of assay: cell-based, mouse. The procedure: FIG. 7D: WT or Ulk1/Ulk2 double knockout mouse embryonic fibroblasts (MEFs) were treated with fresh media (Dulbecco's modified Eagle medium [DMEM] containing 10% FBS) containing 1-μM INK128, 1-μM AZD8055, or DMSO or with starvation media (EBSS) in the presence or absence of 10 μM compound 14. Cellular lysates were isolated after 1 hr of treatment and immunoblotted with the indicated antibodies. Asterisk denotes non-specific band.
We next examined whether compound 14 inhibits endogenous ULK1 activity. To activate endogenous ULK1, we treated MEFs with either amino acid starvation media (Earle's balanced salt solution [EBSS]) or the mTOR ATP-competitive inhibitors INK128 or AZD8055. In WT MEFs, we observed a mobility shift in endogenous Beclin1 and Atg13 in response to EBSS starvation media or the mTOR catalytic inhibitors, which was abolished in Ulk1/2-deficient MEFs (FIG. 7D). […] In certain embodiments, the mobility shifts observed in endogenous Beclin1 and Atg13 induced by mTOR inhibitors and starvation media reflect phosphorylation of endogenous Beclin1/Atg13 by endogenous ULK1/2 as they only occur in WT but not Ulk1/2-deficient MEFs.

Where [5] appears, read: panel of 456 kinases, tested at 10 μM as printed (method says 1 μM).

We go through one compound from patent US10266549B2, “ULK1 inhibitors and methods using same” (SALK INSTITUTE FOR BIOLOGICAL STUDIES, priority 2014, dated 2019).

Structures are written as SMILES.

`CNC(=O)c1ccccc1Nc1nc(Nc2cc(OC)c(OC)c(OC)c2)ncc1Br` [compound 14, 2-(5-bromo-2-(3,4,5-trimethoxyphenylamino)pyrimidin-4-ylamino)-N-methylbenzamide]: in assay [1] ((number of non-mutant kinases with % Ctrl <35)/(number of non-mutant kinases tested)), the “S(35) selectivity index” value stood at 0.123. Also, in assay [1] (setting [5]), the “number of kinases inhibited >90%” value is reported as 19 and the “number of kinases inhibited >95%” value turned out to be 8. Further, the “apoptosis (AnnexinV+ cells)” value in assay [2] is on record as “promoted apoptosis”. Also, in assay [3], the “AZD8055-induced autophagy (Cyto-ID autophagy dye accumulation)” value is reported as “strongly suppressed”. Moreover, the “EBSS and mTOR-inhibitor induced mobility shift in Beclin1 and Atg13” value in assay [4] is given as “inhibited”.
